Laboratory results as given in publication PMC10025235, “Pharmacological and mechanistic study of PS1, a Pdia4 inhibitor, in β-cell pathogenesis and diabetes in db/db mice” (Cellular and Molecular Life Sciences: CMLS, 2023).

Target: T1, Pdia4 (Mus musculus, UniProt P08003)
T1 construct: recombinant Pdia4; Flag-Pdia4 plasmid used in Min6 cells
T1 sequence (P08003 21-638): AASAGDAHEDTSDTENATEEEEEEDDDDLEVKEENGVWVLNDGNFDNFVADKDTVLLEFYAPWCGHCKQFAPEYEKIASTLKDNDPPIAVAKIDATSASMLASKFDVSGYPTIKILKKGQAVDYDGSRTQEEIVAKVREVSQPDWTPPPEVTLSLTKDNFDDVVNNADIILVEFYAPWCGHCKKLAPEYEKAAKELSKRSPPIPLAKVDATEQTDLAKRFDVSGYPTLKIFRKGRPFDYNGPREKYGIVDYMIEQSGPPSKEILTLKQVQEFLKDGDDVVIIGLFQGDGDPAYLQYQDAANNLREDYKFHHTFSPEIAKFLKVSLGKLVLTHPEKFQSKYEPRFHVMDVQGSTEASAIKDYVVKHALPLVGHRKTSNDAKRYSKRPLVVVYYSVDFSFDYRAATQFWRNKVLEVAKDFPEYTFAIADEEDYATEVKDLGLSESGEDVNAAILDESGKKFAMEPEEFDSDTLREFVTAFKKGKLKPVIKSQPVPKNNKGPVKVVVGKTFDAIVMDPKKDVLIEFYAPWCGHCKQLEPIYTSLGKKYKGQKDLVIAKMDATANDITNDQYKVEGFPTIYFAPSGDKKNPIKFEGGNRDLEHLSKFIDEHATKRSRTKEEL
Assay: insulin reduction turbidity assay, […] nm
Format: biochemical
Conditions: insulin substrate; 25 °C; 30 min

PS1
IC50: 4 µM
